According to ChEMBL document CHEMBL4725298, “Exploration of piperazine-derived thioureas as antibacterial and anti-inflammatory agents. In vitro evaluation against clinical isolates of colistin-resistant Acinetobacter baumannii” (Bioorg Med Chem Lett, 2020):
≈ marks a conversion by molar mass, not a printed value. Calls of active or inactive are those of the source. No cut-off for these calls is given here.

What was measured:
[1] = tested on: Acinetobacter baumannii; test: Antibacterial activity against colistin-resistant Acinetobacter baumannii 22P assessed as reduction in bacterial growth incubated for 24 hrs by standard broth microdilution method; format: functional
[2] = tested on: Acinetobacter baumannii; test: Antibacterial activity against Acinetobacter baumannii 21R assessed as fractional inhibitory concentration incubated for 24 hrs by standard broth microdilution method relative to control; format: functional
[3] = tested on: Acinetobacter baumannii; test: Antibacterial activity against Acinetobacter baumannii 22P assessed as fractional inhibitory concentration incubated for 24 hrs by standard broth microdilution method relative to control; format: functional
[4] = tested on: Acinetobacter baumannii; test: Antibacterial activity against colistin-resistant Acinetobacter baumannii 21R assessed as reduction in bacterial growth incubated for 24 hrs by standard broth microdilution method; format: functional
[5] = tested on: Acinetobacter baumannii; test: Antibacterial activity against colistin-resistant Acinetobacter baumannii 14 assessed as reduction in bacterial growth incubated for 24 hrs by standard broth microdilution method; format: functional
[6] = tested on: Acinetobacter baumannii; test: Antibacterial activity against colistin-resistant Acinetobacter baumannii 24 assessed as reduction in bacterial growth incubated for 24 hrs by standard broth microdilution method; format: functional
[7] = tested on: Acinetobacter baumannii; test: Antibacterial activity against colistin-resistant Acinetobacter baumannii 11 assessed as reduction in bacterial growth incubated for 24 hrs by standard broth microdilution method; format: functional
[8] = tested on: Acinetobacter baumannii; test: Antibacterial activity against colistin-resistant Acinetobacter baumannii 17 assessed as reduction in bacterial growth incubated for 24 hrs by standard broth microdilution method; format: functional
[9] = tested on: RAW264.7; test: Antiinflammatory activity against mouse RAW264.7 cells assessed as reduction in LPS-induced NO production at 50 uM incubated for 24 hrs by Griess assay; format: functional, cell-based
[10] = tested on: RAW264.7; test: Antiinflammatory activity against mouse RAW264.7 cells assessed as reduction in LPS-induced NO production at 1 to 10 uM incubated for 24 hrs by Griess assay relative to control; format: functional; details: dose microM 1-10
[11] = Cytotoxicity against human A549 cells; format: cell-based
[12] = tested on: RAW264.7; test: Cytotoxicity against mouse RAW264.7 cells assessed as reduction in cell viability at 1 to 10 uM incubated for 24 hrs; format: cell-based; details: raw264.7, 24 h, dose 1-10 µM
[13] = tested on: Acinetobacter baumannii; test: Synergistic antibacterial activity against Acinetobacter baumannii 22P assessed as fractional inhibitory concentration index incubated for 24 hrs in presence of colistin by standard broth microdilution method; format: functional
[14] = tested on: Acinetobacter baumannii; test: Bactericidal activity against colistin-resistant Acinetobacter baumannii 21R at 4 times of MIC incubated for 4 hrs by time kill curve based analysis; format: functional, organism-based
[15] = tested on: Acinetobacter baumannii; test: Bactericidal activity against colistin-resistant Acinetobacter baumannii 21R assessed as log10 reduction of bacterial colony forming unit at 2 times of MIC incubated for 4 hrs by time kill curve based analysis; format: functional
[16] = tested on: Acinetobacter baumannii; test: Potentiation of colistin-induced antibacterial activity against Acinetobacter baumannii 21R assessed as fold reduction in colistin MIC incubated for 24 hrs by standard broth microdilution method; format: functional
[17] = tested on: Acinetobacter baumannii; test: Bactericidal activity against colistin-resistant Acinetobacter baumannii 22P at 12.5 to 50 uM incubated upto 24 hrs by time kill curve based analysis; format: functional, organism-based; details: dose microM 12.5-50, time hrs <=24
[18] = tested on: Acinetobacter baumannii; test: Potentiation of colistin-induced antibacterial activity against Acinetobacter baumannii 22P assessed as fold reduction in colistin MIC incubated for 24 hrs by standard broth microdilution method; format: functional
[19] = tested on: Acinetobacter baumannii; test: Antibacterial activity against Acinetobacter baumannii 22P assessed as reduction in bacterial growth in presence of colistin incubated for 24 hrs by standard broth microdilution method; format: functional
[20] = tested on: Acinetobacter baumannii; test: Synergistic antibacterial activity against Acinetobacter baumannii 21R assessed as fractional inhibitory concentration index incubated for 24 hrs in presence of colistin by standard broth microdilution method; format: functional
[21] = tested on: Acinetobacter baumannii; test: Antibacterial activity against Acinetobacter baumannii 21R assessed as reduction in bacterial growth in presence of colistin incubated for 24 hrs by standard broth microdilution method; format: functional

Row | Compound | MIC [1] | MIC [4] | MIC [5] | MIC [6] | inhibition [9] | inhibition (INH) [10] | CC50 [11] | other results
1 | COLISTIN | 3540 µM | 1770 µM | 56 µM | 7 µM |  |  |  | FIC [2]: 0.38; FIC [3]: 0.25; MIC [7]: 14 µM; MIC [8]: > 111 µM
2 | CC1CN(C(=O)CC2CCCCC2)CCN1C(=S)Nc1ccc([N+](=O)[O-])cc1 (stereo not drawn) | 12.5 µM (≈ 5.06 µg/mL) | 25 µM (≈ 10.1 µg/mL) |  |  | Active |  |  | Activity [5]: inactive; Activity [6]: inactive; Activity [7]: inactive; Activity [8]: inactive
3 | CC1CN(C(=O)Cc2ccccc2)CCN1C(=S)Nc1ccc(C(F)(F)F)cc1 (stereo not drawn) |  |  |  |  | Active |  |  | Activity [1]: inactive; Activity [4]: inactive; Activity [5]: inactive; Activity [6]: inactive; Activity [7]: inactive; Activity [8]: inactive
4 | CC1CN(C(=O)Cc2ccccc2)CCN1C(=S)Nc1ccc(Cl)cc1 (stereo not drawn) |  |  |  |  | Active |  |  | Activity [1]: inactive; Activity [4]: inactive; Activity [5]: inactive; Activity [6]: inactive; Activity [7]: inactive; Activity [8]: inactive
5 | CC1CN(C(=O)CC2CCCCC2)CCN1C(=S)Nc1ccc(C#N)cc1 (stereo not drawn) |  |  |  |  | Active |  |  | Activity [1]: inactive; Activity [4]: inactive; Activity [5]: inactive; Activity [6]: inactive; Activity [7]: inactive; Activity [8]: inactive
6 | O=C(Cc1ccccc1)N1CCN(C(=S)Nc2cc(C(F)(F)F)cc(C(F)(F)F)c2)C(c2ccccc2)C1 (stereo not drawn) |  |  |  |  | Active |  |  | MIC [8]: 3.12 µM (≈ 1.72 µg/mL)
7 | CC(C)(C)CC(=O)N1CCN(C(=S)Nc2cc(C(F)(F)F)cc(C(F)(F)F)c2)C(c2ccccc2)C1 (stereo not drawn) | 3.12 µM (≈ 1.66 µg/mL) | 3.12 µM (≈ 1.66 µg/mL) |  | 3.12 µM (≈ 1.66 µg/mL) | Active | >=80% |  | MIC [7]: 3.12 µM (≈ 1.66 µg/mL)
8 | CC(C)(C)OC(=O)N1CCN(C(=S)Nc2cc(C(F)(F)F)cc(C(F)(F)F)c2)C(c2ccccc2)C1 (stereo not drawn) |  |  | 12.5 µM (≈ 6.67 µg/mL) |  | Active | >=80% | 127 µM | MIC [8]: 6.25 µM (≈ 3.33 µg/mL); Activity [12]: Toxic
9 | C[C@H]1CN(C(=O)CC(C)(C)C)CCN1C(=S)Nc1cc(C(F)(F)F)cc(C(F)(F)F)c1 | 6.25 µM (≈ 2.93 µg/mL) | 6.25 µM (≈ 2.93 µg/mL) |  | 12.5 µM (≈ 5.87 µg/mL) |  |  | 73.5 µM | 
10 | C[C@@H]1CN(C(=O)CC(C)(C)C)CCN1C(=S)Nc1cc(C(F)(F)F)cc(C(F)(F)F)c1 | 12.5 µM (≈ 5.87 µg/mL) | 6.25 µM (≈ 2.93 µg/mL) |  | 6.25 µM (≈ 2.93 µg/mL) |  |  | 162 µM | 
11 | O=C(CC1CCCCC1)N1CCN(C(=S)Nc2cc(C(F)(F)F)cc(C(F)(F)F)c2)C(c2ccccc2)C1 (stereo not drawn) | 6.25 µM (≈ 3.49 µg/mL) | 3.12 µM (≈ 1.74 µg/mL) |  | 3.12 µM (≈ 1.74 µg/mL) | Active | >=80% | 125 µM | MIC [7]: 3.12 µM (≈ 1.74 µg/mL); Activity [12]: Toxic
12 | CC1CN(C(=O)CC2CCCCC2)CCN1C(=S)Nc1ccc(Cl)cc1 (stereo not drawn) | 12.5 µM (≈ 4.92 µg/mL) | 12.5 µM (≈ 4.92 µg/mL) | 50 µM (≈ 19.7 µg/mL) | 25 µM (≈ 9.85 µg/mL) |  |  | 200 µM | 
13 | CC(C)(C)OC(=O)N1CCN(C(=S)Nc2cc(C(F)(F)F)cc(C(F)(F)F)c2)CC1 | 12.5 µM (≈ 5.72 µg/mL) | 6.25 µM (≈ 2.86 µg/mL) | 6.25 µM (≈ 2.86 µg/mL) |  | Active |  | 109 µM | fractional inhibitory concentration index (FICI) [13]: 0.37; Activity [14]: Active; FIC [2]: 0.12; FIC [3]: 0.12; Activity [15]: 3 log10CFU/ml; fold change (FC) [16]: 4; Activity [17]: inactive; MIC [7]: 12.5 µM (≈ 5.72 µg/mL); fold change (FC) [18]: 4; MIC [8]: 6.25 µM (≈ 2.86 µg/mL); MIC [19]: 1.56 µM; fractional inhibitory concentration index (FICI) [20]: 0.5; MIC [21]: 0.78 µM
14 | CC1CN(C(=O)CC2CCCCC2)CCN1C(=S)Nc1ccc(C(F)(F)F)cc1 (stereo not drawn) | 6.25 µM (≈ 2.67 µg/mL) | 25 µM (≈ 10.7 µg/mL) | 12.5 µM (≈ 5.34 µg/mL) | 3.12 µM (≈ 1.33 µg/mL) |  |  |  | 
15 | CC1CN(C(=O)OC(C)(C)C)CCN1C(=S)Nc1cc(C(F)(F)F)cc(C(F)(F)F)c1 (stereo not drawn) |  |  | 3.12 µM (≈ 1.47 µg/mL) |  | Active | 40% | 112 µM | 
16 | CC1CN(C(=O)CC(C)(C)C)CCN1C(=S)Nc1cc(C(F)(F)F)cc(C(F)(F)F)c1 (racemic) | 6.25 µM (≈ 2.93 µg/mL) | 6.25 µM (≈ 2.93 µg/mL) | 50 µM (≈ 23.5 µg/mL) | 6.25 µM (≈ 2.93 µg/mL) | Active | 40% | 73.2 µM | 
17 | CC1CN(C(=O)Cc2ccccc2)CCN1C(=S)Nc1cc(C(F)(F)F)cc(C(F)(F)F)c1 (stereo not drawn) |  | 3.12 µM (≈ 1.53 µg/mL) | 3.12 µM (≈ 1.53 µg/mL) | 6.25 µM (≈ 3.06 µg/mL) | Active |  | 130 µM | MIC [7]: 6.25 µM (≈ 3.06 µg/mL); MIC [8]: 3.12 µM (≈ 1.53 µg/mL)
18 | CC1CN(C(=O)CC2CCCCC2)CCN1C(=S)Nc1cc(C(F)(F)F)cc(C(F)(F)F)c1 (stereo not drawn) | 1.56 µM (≈ 0.773 µg/mL) | 3.12 µM (≈ 1.55 µg/mL) | 50 µM (≈ 24.8 µg/mL) | 25 µM (≈ 12.4 µg/mL) | Active | 40% | 82 µM | 
